The text below walks through data of patent US20040235717A1, “Suppression of androgen receptor transactivation through new pathways to ar and ar coactivators and repressors” (priority 2001, published 2004).

The subject of test [1] is AR protein stability. Nature of the test: Pulse-chase labeling of AR in COS-1 cells. The test is classed as cell-based. Particulars: LY294002 20 μM. The procedure: 30. […] The cells were harvested for Western blot analysis. […] Western blot analysis was performed and AR and PTEN were detected by AR antibody or PTEN antibody. (C) PTEN-C1 cells were treated with 4 μg/ml Dox in 10% CDS media for 48 h. Total RNA was prepared and Northern blot analysis was performed using [^32P]-dCTP-labeled AR (aa, 1-389) as a probe. (D) COS-1 cells were transfected with AR along with pCDNA3 or PTEN in 10% CDS media for 16 h. […] The cell extracts were immunoprecipitated with AR antibody and subjected to SDS-PAGE followed by autoradiography. Data were from three identical results. (E) COS-1 cells were transfected with AR along with pCDNA3 or dAkt in 10% CDS media for 16 h, pulsed with [^35S]-methionine for 45 min, and then harvested at different chase times as indicated. LY294002 (20 μM) was added 2 h before pulsing with [^35S]-methionine.
317. Pulse-chase experiments were performed as described (Lo et al. (1999) Nat Cell Biol 1, 472-8) with some modifications. Briefly, COS-1 cells were transfected with pSG5-AR in combination with pCDNA3 or pCDNA3 PTEN in 10% CDS media for […]. Cells were grown under serum starvation conditions for 2 h in methionine/cysteine-deficient medium, and then the cells were pulsed for 45 min with 200 μCi/ml [^35S]-methionine/cysteine (NEN). […]

The target of test [2] is T1, interaction between AR and ARA70 (Homo sapiens, UniProt P10275).
T1 construct: VP16 fused to the AR aa 36-918 (VP16-AR); expressed in transfected cells; host or cells: DU145
T1 sequence (P10275 36-920): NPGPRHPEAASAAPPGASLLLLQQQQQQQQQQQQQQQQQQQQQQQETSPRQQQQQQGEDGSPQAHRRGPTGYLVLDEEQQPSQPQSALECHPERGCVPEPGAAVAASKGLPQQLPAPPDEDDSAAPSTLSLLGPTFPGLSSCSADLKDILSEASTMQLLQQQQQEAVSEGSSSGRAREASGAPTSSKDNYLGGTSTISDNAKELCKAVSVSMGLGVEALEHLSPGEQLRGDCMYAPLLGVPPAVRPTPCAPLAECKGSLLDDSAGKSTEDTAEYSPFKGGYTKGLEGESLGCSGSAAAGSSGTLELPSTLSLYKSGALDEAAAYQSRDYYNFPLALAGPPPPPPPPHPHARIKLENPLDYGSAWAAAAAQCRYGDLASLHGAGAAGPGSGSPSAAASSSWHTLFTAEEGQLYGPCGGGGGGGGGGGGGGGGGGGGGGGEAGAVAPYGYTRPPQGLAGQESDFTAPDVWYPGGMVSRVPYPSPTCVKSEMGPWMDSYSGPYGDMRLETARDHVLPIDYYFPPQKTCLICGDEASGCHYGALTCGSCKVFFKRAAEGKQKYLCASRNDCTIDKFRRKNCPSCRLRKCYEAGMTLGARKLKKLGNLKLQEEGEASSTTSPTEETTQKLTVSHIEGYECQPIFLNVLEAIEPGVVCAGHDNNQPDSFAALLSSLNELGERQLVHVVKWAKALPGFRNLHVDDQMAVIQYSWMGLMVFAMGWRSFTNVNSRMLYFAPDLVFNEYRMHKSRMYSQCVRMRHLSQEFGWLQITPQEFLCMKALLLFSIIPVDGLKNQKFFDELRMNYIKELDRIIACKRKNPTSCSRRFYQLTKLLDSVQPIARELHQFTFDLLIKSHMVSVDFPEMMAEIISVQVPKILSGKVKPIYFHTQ
Nature of the test: Mammalian two-hybrid assay GAL4-ARA70 / VP16-AR in DU145 cells (pG5CAT). Particulars: 1 nM DHT. The test is classed as cell-based. From the text:
257. […] Onate, S. A. et al., Science 270, 1354-1357 (1995); Voegel, J. J. et al., EMBO J. 15, 3667-3675 (1996); Yeh, S. et al., Proc. Natl. Acad. Sci. USA 93, 5517-5521(1996); Yeh, S. et al., Proc. Natl. Acad. Sci. USA 95, 5527-5532 (1998); Fujimoto, N. et al., J. BioI. Chem. 274, 8316-8321 (1999); Miyamoto, H. et al., Proc. Natl. Acad. Sci. USA 95 11083-11088 (1998); Kang, H. Y. et al., J. BioI. Chem. 274, 8570-8576 (1999); Yeh, S. et al., Biochem. Biophys. Res. Commun. 248, 361-367 (1998). […] Yeh, S. et al., Proc. Natl. Acad. Sci. USA 93, 5517-5521(1996); Yeh, S. et al., Proc. Natl. Acad. Sci. USA 95, 5527-5532 (1998). […] The interaction between AR and ARA70 was determined by CAT assay using pG5CAT as reporter. […] In contrast, the addition of […] between the AR and ARA70 (FIG. 4a, lane 2 vs 5 and lane 6 vs 8). Similar repression effects also occurred when we replaced ARA70 with other AR coactivators, such as ARA54 or TIF2. Kang, H. Y. et al., J. BioI. Chem. 274, 8570-8576 (1999); Voegel, J. J. et al., EMBO J. 15, 3667-3675 (1996). cAkt and dAkt, however, had very little effect on the interaction between GAL4 fused AR-LBD653-918 and VP16-ARA 70 (VP16 fused ARA70), VP16-ARA54, or VP16-TIF2.
GAL4DBD fused to ARA70 aa 176-401 (GAL4-ARA70), and VP16 fused to the AR aa 36-918 (VP16-AR) were transfected into DU145 cells in the presence or absence of cAkt, dAkt, and LY294002.

“Also recorded” adds a separate entry of the source.

As to “dAkt: dominant-negative Akt, a kinase deficient mutant, K179A”, in test [1], the AR degradation result was “did not promote AR degradation”. Besides, the “Interaction between AR and ARA70 (CAT activity)” value in test [2] is “further enhanced the interaction of AR and ARA70; also recorded: further enhanced the interaction between the AR and ARA70”.
